Reference: PubChem BioAssay (NCI)
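Briefly, cells in 96-well plates were exposed to five compound concentrations for 48 h, and endpoints were estimated by linear interpolation. GI50: concentration for 50% inhibition of growth. TGI denotes the concentration required for complete inhibition of growth.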

Columns and labels:
Assay in all cases: NCI-60 cell line screen, 48 h
ACHN renal = system: ACHN renal
MCF7 breast = system: MCF7 breast
OVCAR-4 ovarian = system: OVCAR-4 ovarian
HCT-15 colon = system: HCT-15 colon
NCI-H226 lung = system: NCI-H226 lung
SNB-75 CNS = system: SNB-75 CNS
T-47D breast = system: T-47D breast
MDA-MB-231 breast = system: MDA-MB-231 breast
SK-MEL-28 melanoma = system: SK-MEL-28 melanoma
IGROV1 ovarian = system: IGROV1 ovarian
HS 578T breast = system: HS 578T breast
CCRF-CEM leukemia = system: CCRF-CEM leukemia
SK-OV-3 ovarian = system: SK-OV-3 ovarian
RPMI-8226 leukemia = system: RPMI-8226 leukemia
RXF 393 renal = system: RXF 393 renal
HCC-2998 colon = system: HCC-2998 colon
NCI-H460 lung = system: NCI-H460 lung
LOX IMVI melanoma = system: LOX IMVI melanoma
SNB-19 CNS = system: SNB-19 CNS
KM12 colon = system: KM12 colon
BT-549 breast = system: BT-549 breast
MDA-MB-435 = system: MDA-MB-435
EKVX NSCLC = system: EKVX NSCLC
SF-295 CNS = system: SF-295 CNS
HT29 colon = system: HT29 colon
PC-3 prostate = system: PC-3 prostate
TK-10 renal = system: TK-10 renal
MALME-3M melanoma = system: MALME-3M melanoma
786-0 renal = system: 786-0 renal
SK-MEL-5 melanoma = system: SK-MEL-5 melanoma
M14 melanoma = system: M14 melanoma
HCT-116 colon = system: HCT-116 colon
SR leukemia = system: SR leukemia
SF-268 CNS = system: SF-268 CNS
SK-MEL-2 melanoma = system: SK-MEL-2 melanoma
SF-539 CNS = system: SF-539 CNS
A498 renal = system: A498 renal
NCI/ADR-RES ovarian = system: NCI/ADR-RES ovarian
DU-145 prostate = system: DU-145 prostate
OVCAR-5 ovarian = system: OVCAR-5 ovarian
NCI-H23 lung = system: NCI-H23 lung
UACC-257 melanoma = system: UACC-257 melanoma
NCI-H522 lung = system: NCI-H522 lung
CAKI-1 renal = system: CAKI-1 renal
U251 CNS = system: U251 CNS
SW-620 colon = system: SW-620 colon
HOP-92 NSCLC = system: HOP-92 NSCLC
SN12C renal = system: SN12C renal
OVCAR-8 ovarian = system: OVCAR-8 ovarian
OVCAR-3 ovarian = system: OVCAR-3 ovarian
UO-31 renal = system: UO-31 renal
UACC-62 melanoma = system: UACC-62 melanoma
K-562 leukemia = system: K-562 leukemia
A549 NSCLC = system: A549 NSCLC
HL-60(TB) leukemia = system: HL-60(TB) leukemia
HOP-62 NSCLC = system: HOP-62 NSCLC
MOLT-4 leukemia = system: MOLT-4 leukemia
COLO 205 colon = system: COLO 205 colon

CS(=O)(=O)Nc1cc(-c2ccc3ncc(C#N)c(NCc4ccccc4)c3c2)cnc1Cl
GI50 (ACHN renal): 434 nM | TGI (ACHN renal): > 46300 nM | GI50 (MCF7 breast): 63.7 nM | TGI (MCF7 breast): 3750 nM | GI50 (OVCAR-4 ovarian): 325 nM | TGI (OVCAR-4 ovarian): > 42700 nM | GI50 (HCT-15 colon): 268 nM | TGI (HCT-15 colon): 11400 nM | GI50 (NCI-H226 lung): 347 nM | TGI (NCI-H226 lung): 18000 nM | GI50 (SNB-75 CNS): 38.2 nM | TGI (SNB-75 CNS): 334 nM | GI50 (T-47D breast): 52.1 nM | TGI (T-47D breast): 2670 nM | GI50 (MDA-MB-231 breast): 331 nM | TGI (MDA-MB-231 breast): 6370 nM | GI50 (SK-MEL-28 melanoma): 175 nM | TGI (SK-MEL-28 melanoma): 10200 nM | GI50 (IGROV1 ovarian): 89.6 nM | TGI (IGROV1 ovarian): 667 nM | GI50 (HS 578T breast): 65 nM | TGI (HS 578T breast): 521 nM | GI50 (CCRF-CEM leukemia): 117 nM | TGI (CCRF-CEM leukemia): 15200 nM | GI50 (SK-OV-3 ovarian): 259 nM | TGI (SK-OV-3 ovarian): 1610 nM | GI50 (RPMI-8226 leukemia): 212 nM | TGI (RPMI-8226 leukemia): 1070 nM | GI50 (RXF 393 renal): 38.4 nM | TGI (RXF 393 renal): 435 nM | GI50 (HCC-2998 colon): 325 nM | TGI (HCC-2998 colon): 6420 nM | GI50 (NCI-H460 lung): 371 nM | TGI (NCI-H460 lung): > 100000 nM | GI50 (LOX IMVI melanoma): 214 nM | TGI (LOX IMVI melanoma): 1110 nM | GI50 (SNB-19 CNS): 268 nM | TGI (SNB-19 CNS): 11600 nM | GI50 (KM12 colon): 431 nM | TGI (KM12 colon): 4980 nM | GI50 (BT-549 breast): 155 nM | TGI (BT-549 breast): 2040 nM | GI50 (MDA-MB-435): 299 nM | TGI (MDA-MB-435): 8270 nM | GI50 (EKVX NSCLC): 340 nM | TGI (EKVX NSCLC): 3860 nM | GI50 (SF-295 CNS): 192 nM | TGI (SF-295 CNS): 1740 nM | GI50 (HT29 colon): 463 nM | TGI (HT29 colon): 25000 nM | GI50 (PC-3 prostate): 158 nM | TGI (PC-3 prostate): 2750 nM | GI50 (TK-10 renal): 190 nM | TGI (TK-10 renal): 1970 nM | GI50 (MALME-3M melanoma): 79 nM | TGI (MALME-3M melanoma): 626 nM | GI50 (786-0 renal): 350 nM | TGI (786-0 renal): > 45400 nM | GI50 (SK-MEL-5 melanoma): 146 nM | TGI (SK-MEL-5 melanoma): 344 nM | GI50 (M14 melanoma): 178 nM | TGI (M14 melanoma): 10800 nM | GI50 (HCT-116 colon): 334 nM | TGI (HCT-116 colon): 4360 nM | GI50 (SR leukemia): 164 nM | TGI (SR leukemia): 7910 nM | GI50 (SF-268 CNS): 197 nM | TGI (SF-268 CNS): 5220 nM | GI50 (SK-MEL-2 melanoma): 195 nM | TGI (SK-MEL-2 melanoma): 975 nM | GI50 (SF-539 CNS): 205 nM | TGI (SF-539 CNS): 1700 nM | GI50 (A498 renal): 101 nM | TGI (A498 renal): 498 nM | GI50 (NCI/ADR-RES ovarian): 1700 nM | TGI (NCI/ADR-RES ovarian): 28900 nM | GI50 (DU-145 prostate): 322 nM | TGI (DU-145 prostate): 19200 nM | GI50 (OVCAR-5 ovarian): 440 nM | TGI (OVCAR-5 ovarian): 21100 nM | GI50 (NCI-H23 lung): 291 nM | TGI (NCI-H23 lung): 15600 nM | GI50 (UACC-257 melanoma): 327 nM | TGI (UACC-257 melanoma): 6320 nM | GI50 (NCI-H522 lung): 281 nM | TGI (NCI-H522 lung): 13900 nM | GI50 (CAKI-1 renal): 186 nM | TGI (CAKI-1 renal): 2370 nM | GI50 (U251 CNS): 218 nM | TGI (U251 CNS): 12700 nM | GI50 (SW-620 colon): 351 nM | TGI (SW-620 colon): > 36100 nM | GI50 (HOP-92 NSCLC): 33.7 nM | TGI (HOP-92 NSCLC): 399 nM | GI50 (SN12C renal): 233 nM | TGI (SN12C renal): > 49500 nM | GI50 (OVCAR-8 ovarian): 364 nM | TGI (OVCAR-8 ovarian): > 39400 nM | GI50 (OVCAR-3 ovarian): 254 nM | TGI (OVCAR-3 ovarian): 2790 nM | GI50 (UO-31 renal): 111 nM | TGI (UO-31 renal): 3170 nM | GI50 (UACC-62 melanoma): 76.4 nM | TGI (UACC-62 melanoma): 815 nM | GI50 (K-562 leukemia): 311 nM | TGI (K-562 leukemia): > 100000 nM | GI50 (A549 NSCLC): 500 nM | TGI (A549 NSCLC): 7740 nM | GI50 (HL-60(TB) leukemia): 294 nM | TGI (HL-60(TB) leukemia): 7520 nM | GI50 (HOP-62 NSCLC): 270 nM | TGI (HOP-62 NSCLC): 9120 nM | GI50 (MOLT-4 leukemia): 177 nM | TGI (MOLT-4 leukemia): 3940 nM | GI50 (COLO 205 colon): 353 nM | TGI (COLO 205 colon): 2870 nM
